The target of assay [1] is T1, complex I.
T1 construct: gene NDUFV1; MitoTox Complex I OXPHOS Activity Microplate Assay (ab109903)
Description: complex I NADH:paraquat electron transfer, microplate activity assay (ubiquinone replaced by paraquat). It counts as biochemical, Bos taurus.

The test system of assay [2] is T2, complex I.
T2 construct: gene Ndufv1; submitochondrial particles from rat liver
Description: NADH oxidation in rat liver submitochondrial particles. It counts as biochemical.

Like-named read-outs stand apart in the source and are kept apart here.

For the compound `[H]/N=C(/N)NCCCCCNC(=N)N` [DG5], on complex I [1], the IC50 (usually the concentration at which inhibition is half-maximal) worked out at 12 mM.

Turning to `CN(C)C(=N)N=C(N)N` [metformin], the half-inhibitory concentration (IC50) at complex I [1] (read-out: IC50) turned out to be 91 mM. For `[H]/N=C(/N)N/C(=N/[H])NCCc1ccccc1` [phenformin], the “NADH oxidation in rat liver submitochondrial particles” value in the assay with complex I [2] is “Effects of both phenformin and DG5 on NADH oxidation were observed at much lower concentrations than responses to metformin”.

These data come from article PMC5609876, “Metformin selectively targets redox control of complex I energy transduction” (Redox Biology, 2017).
